From PubChem BioAssay AID2060490 (Molecular Pharmacology Branch, DTP, NCI, 2025)
Each block holds one molecule with its values, some of them ahead of it.

System: 885512-296-R-J2-PDC complex spheroid viability
Assay: Anticancer human tumor 885512-296-R-J2-PDC patient-derived breast carcinoma cell line growth inhibition [GQUAD]
Conditions: for IC50: curve of first compound; for viability, T/C: stronger effect = lower value
From the text: DNA G-quadruplex Stabilizer Agents in Combinations in Complex Spheroids
A high-throughput screen of multi-cell type tumor spheroids was designed to identify active combinations of DNA G-quadruplex stabilizer agents and targeted small molecules. Complex spheroids include a stromal component modeled by human endothelial cells (HUVEC) and fibroblasts modeled by human mesenchymal stem cells (MSCs). The concentration ranges selected for each drug and investigational agent were based upon clinically achievable concentrations if the clinical Cmax of the agent was known.
Compounds. The drugs and investigational agents: pidnarulex (CX-5461; NSC782164), APTO-253 (NSC789042), BRACO-19 (NSC847499), peposertib (NSC802822), ceralasertib (NSC780249), elimusertib (NSC800525), camonsertib (NSC841442), AZD-1390 (NSC803789), olaparib (NSC753686), talazoparib (NSC767125), ART-558 (NSC835418), sotorasib (NSC818433), MRTX-1133 (NSC836407), SN-38 (NSC673596), topotecan (NSC609699), etoposide (NSC141540), doxorubicin (NSC123127), gemcitabine (NSC613327), 5-fluorouracil (NSC19893), paclitaxel (NSC125973), vemurafenib (NSC761431), panobinostat (NSC761190), R-306465 (JNJ-16241199; NSC773264), adavosertib (NSC754352), TP-3654 (NSC805149), carboplatin (NSC241240), KSQ-4279 (NSC840948), and staurosporine (NSC755774) were obtained from the National Cancer Institute (NCI) Developmental Therapeutics Program Chemical Repository (34). The FDA-approved anticancer drug set is available from the NCI Developmental Therapeutics Program. […] The stock solutions were prepared in dimethyl sulfoxide (DMSO, Sigma-Aldrich, St. Louis, MO, cat. D2650) at 800-fold the tested concentration and stored at -70 degrees C prior to their use. All drugs and investigational agents were tested over a range starting from a high concentration at or near the clinical Cmax and decreasing in half-log increments. If the clinical Cmax for an agent had not been determined, the highest concentration tested was 10 microM.
2.3 Cell Culture. All cells were maintained in an incubator at 37 degrees C and 5% CO2 with 95% humidity. The PDC lines were cultured according to standard operating procedures established by the NCI PDMR. All PDCs were thawed and cultured in Matrigel-coated flasks prepared with a working solution of 1X Ham's F-12 nutrient mix, without supplementation (Invitrogen, cat. 11765054), 100 U/mL penicillin-streptomycin (Invitrogen, cat. 15140122), and 2.5% Matrigel (Corning Inc., cat. 354248) for the first three passages. The 857933-349-R-J2-PDC line was cultured in 6C/Colon 1B media, which includes advanced DMEM/F-12 (Thermo Fisher Scientific, cat. 12634028), 10 mM HEPES (Thermo Fisher Scientific, cat. 15630080), 1X GlutaMAX supplement (Thermo Fisher Scientific, cat. 35050061), 0.1 mg/mL primocin (InvivoGen, cat. ant-pm-2), 10% defined fetal bovine serum, heat inactivated (HyClone Laboratories Inc., cat. SH30070.03HI), 50% L-WRN conditioned media (ATCC, cat. CRL-3276), 1.25 mM N-Acetyl-L-cysteine (Sigma-Aldrich, cat. A9165), 10 mM nicotinamide (Sigma-Aldrich, cat. N0636), 1X B-27 supplement (Thermo Fisher Scientific, cat. 17504044), 1X N-2 supplement (Thermo Fisher Scientific, cat. 17502048), 10 microM Y-27632 dihydrochloride (Tocris Bioscience, cat. 1254), and 50 ng/mL human EGF recombinant protein (Thermo Fisher Scientific, cat. PHG0311). The 485176-168-R4-J1-PDC line was cultured in Panc media, which includes all 6C/Colon 1B media components plus 100 ng/mL human FGF-10 (Thermo Fisher Scientific, cat. 100-26), 500 nM SB-431542 (Selleckchem, cat. S1067), and gastrin (Tocris, cat. 3006).
[…]

[1] = second compound 0.0316 µM, first compound 0.0316 µM
[2] = second compound 0.0316 µM, first compound 0.1 µM
[3] = second compound 0.0316 µM, first compound 0.316 µM
[4] = second compound 0.0316 µM, first compound 1 µM
[5] = second compound 0.0316 µM, first compound 3.16 µM
[6] = second compound 0.0316 µM, first compound 10 µM
[7] = second compound 0.1 µM, first compound 0.0316 µM
[8] = second compound 0.1 µM, first compound 0.1 µM
[9] = second compound 0.1 µM, first compound 0.316 µM
[10] = second compound 0.1 µM, first compound 1 µM
[11] = second compound 0.1 µM, first compound 3.16 µM
[12] = second compound 0.1 µM, first compound 10 µM
[13] = second compound 0.316 µM, first compound 0.0316 µM
[14] = second compound 0.316 µM, first compound 0.1 µM
[15] = second compound 0.316 µM, first compound 0.316 µM
[16] = second compound 0.316 µM, first compound 1 µM
[17] = second compound 0.316 µM, first compound 3.16 µM
[18] = second compound 0.316 µM, first compound 10 µM
[19] = second compound 1 µM, first compound 0.0316 µM
[20] = second compound 1 µM, first compound 0.1 µM
[21] = second compound 1 µM, first compound 0.316 µM
[22] = second compound 1 µM, first compound 1 µM
[23] = second compound 1 µM, first compound 3.16 µM
[24] = second compound 1 µM, first compound 10 µM
[25] = second compound 3.16 µM, first compound 0.0316 µM
[26] = second compound 3.16 µM, first compound 0.1 µM
[27] = second compound 3.16 µM, first compound 0.316 µM
[28] = second compound 3.16 µM, first compound 1 µM
[29] = second compound 3.16 µM, first compound 3.16 µM
[30] = second compound 3.16 µM, first compound 10 µM
[31] = second compound 10 µM, first compound 0.0316 µM
[32] = second compound 10 µM, first compound 0.1 µM
[33] = second compound 10 µM, first compound 0.316 µM
[34] = second compound 10 µM, first compound 1 µM
[35] = second compound 10 µM, first compound 3.16 µM
[36] = second compound 10 µM, first compound 10 µM
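Further: spheroids exposed to the compounds for one week.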
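Wherever viability, T/C is given: percent of tumor spheroid viability relative to DMSO vehicle control wells.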

SMILES: O=c1[nH]cc(F)c(=O)[nH]1 + Cc1[nH]c2ccc(F)cc2c1-c1nc2c3cccnc3c3ncccc3c2[nH]1
IC50 (second compound 0.0316 µM): > 10 µM | IC50 (second compound 0.1 µM): > 10 µM | IC50 (second compound 0.316 µM): > 10 µM | IC50 (second compound 1 µM): > 10 µM | IC50 (second compound 3.16 µM): < 0.0316 µM | IC50 (second compound 10 µM): < 0.0316 µM | viability, T/C [1]: 98.3% | viability, T/C [2]: 98.3% | viability, T/C [3]: 104% | viability, T/C [4]: 122% | viability, T/C [5]: 69.5% | viability, T/C [6]: 59.3% | viability, T/C [7]: 102% | viability, T/C [8]: 106% | viability, T/C [9]: 111% | viability, T/C [10]: 104% | viability, T/C [11]: 70.1% | viability, T/C [12]: 56.2% | viability, T/C [13]: 96.9% | viability, T/C [14]: 90.1% | viability, T/C [15]: 81.7% | viability, T/C [16]: 104% | viability, T/C [17]: 70.5% | viability, T/C [18]: 61.1% | viability, T/C [19]: 80.4% | viability, T/C [20]: 82.3% | viability, T/C [21]: 73.7% | viability, T/C [22]: 66.4% | viability, T/C [23]: 53.9% | viability, T/C [24]: 51.6% | viability, T/C [25]: 22% | viability, T/C [26]: 18.2% | viability, T/C [27]: 14.3% | viability, T/C [28]: 16.8% | viability, T/C [29]: 11.4% | viability, T/C [30]: 9.54% | viability, T/C [31]: 1.17% | viability, T/C [32]: 2.62% | viability, T/C [33]: 1.62% | viability, T/C [34]: 1.6% | viability, T/C [35]: 1.85% | viability, T/C [36]: 1.45%

IC50 (second compound 0.0316 µM): > 10 µM | IC50 (second compound 0.1 µM): > 10 µM | IC50 (second compound 0.316 µM): < 0.0316 µM | IC50 (second compound 1 µM): < 0.0316 µM | IC50 (second compound 3.16 µM): < 0.0316 µM | IC50 (second compound 10 µM): < 0.0316 µM
SMILES: C=CC(=O)N1CCN(c2nc(=O)n(-c3c(C)ccnc3C(C)C)c3nc(-c4c(O)cccc4F)c(F)cc23)C(C)C1 (centres undefined) + Cc1cnc(CNC(=O)c2c(=O)c3ccc(N4CCCN(C)CC4)nc3n3c2sc2ccccc23)cn1
viability, T/C [1]: 90.5% | viability, T/C [2]: 81.3% | viability, T/C [3]: 107% | viability, T/C [4]: 105% | viability, T/C [5]: 99.1% | viability, T/C [6]: 76.9% | viability, T/C [7]: 60.9% | viability, T/C [8]: 66% | viability, T/C [9]: 68.5% | viability, T/C [10]: 67.5% | viability, T/C [11]: 79.5% | viability, T/C [12]: 47.3% | viability, T/C [13]: 35.9% | viability, T/C [14]: 29.3% | viability, T/C [15]: 33.8% | viability, T/C [16]: 31.1% | viability, T/C [17]: 33.6% | viability, T/C [18]: 24% | viability, T/C [19]: 23.4% | viability, T/C [20]: 30.9% | viability, T/C [21]: 33.2% | viability, T/C [22]: 24.1% | viability, T/C [23]: 22.6% | viability, T/C [24]: 28.3% | viability, T/C [25]: 34.5% | viability, T/C [26]: 31.4% | viability, T/C [27]: 19.4% | viability, T/C [28]: 27% | viability, T/C [29]: 29.8% | viability, T/C [30]: 32.3% | viability, T/C [31]: 0.14% | viability, T/C [32]: 0.2% | viability, T/C [33]: 0.24% | viability, T/C [34]: 0.2% | viability, T/C [35]: 0.2% | viability, T/C [36]: 1.55%
